Laboratory results taken from patent US20200170975A1 (Strongbridge Dublin Limited, priority 2018, published 2020).
Like-named read-outs stand apart in the source and are kept apart here.

Tests used:
P-gp [1] = biological target: T1, P-gp (Homo sapiens, UniProt P08183)
P-gp [2] = biological target: T1, P-gp; conditions: 120 min
OAT2 = biological target: T2, OAT2 (Homo sapiens, UniProt Q9Y694); test: OAT2 inhibition: accumulation of [3H]-PGE2 in S2 cells; assay type: in vitro ADME
T2 construct: expressed in transfected cells; host or cells: S2 cells
T2 sequence (Q9Y694 1-548): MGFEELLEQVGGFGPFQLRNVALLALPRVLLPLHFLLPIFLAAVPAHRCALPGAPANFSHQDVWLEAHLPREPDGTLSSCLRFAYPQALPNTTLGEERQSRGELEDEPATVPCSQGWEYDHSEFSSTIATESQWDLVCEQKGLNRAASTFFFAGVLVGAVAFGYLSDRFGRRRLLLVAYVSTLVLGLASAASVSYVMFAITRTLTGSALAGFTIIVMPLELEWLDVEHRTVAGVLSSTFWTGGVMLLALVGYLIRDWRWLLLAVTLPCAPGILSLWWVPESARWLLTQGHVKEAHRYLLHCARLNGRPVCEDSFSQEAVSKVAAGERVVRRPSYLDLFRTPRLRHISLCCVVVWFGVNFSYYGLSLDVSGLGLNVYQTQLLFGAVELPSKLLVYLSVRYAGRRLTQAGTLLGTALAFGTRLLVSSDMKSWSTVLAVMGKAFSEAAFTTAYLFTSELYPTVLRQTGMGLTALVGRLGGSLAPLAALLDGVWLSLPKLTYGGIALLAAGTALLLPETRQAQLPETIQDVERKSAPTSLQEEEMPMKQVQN
Procedure: (§1) Schneider 2 (S2) cells are a commonly used Drosophila melanogaster cell lines from a primary culture of late stage (20-24 hours old) embryos from a macrophage-like lineage. S2 cells are used to express heterologous proteins, to produce proteins on a large scale, and to easily and transiently transfect with several plasmids at once to study protein interactions.
(§2) [^14C]-Metformin (1 mM) was provided as a solid and was prepared in Hank's balanced salt solution (HBSS).

OAT4 = biological target: T3, OAT4 (Homo sapiens, UniProt Q9NSA0); test: OAT4 inhibition: accumulation of [3H]-estrone-3-sulfate in S2 cells; assay type: in vitro ADME
T3 construct: expressed in transfected cells; host or cells: S2 cells
T3 sequence (Q9NSA0 1-550): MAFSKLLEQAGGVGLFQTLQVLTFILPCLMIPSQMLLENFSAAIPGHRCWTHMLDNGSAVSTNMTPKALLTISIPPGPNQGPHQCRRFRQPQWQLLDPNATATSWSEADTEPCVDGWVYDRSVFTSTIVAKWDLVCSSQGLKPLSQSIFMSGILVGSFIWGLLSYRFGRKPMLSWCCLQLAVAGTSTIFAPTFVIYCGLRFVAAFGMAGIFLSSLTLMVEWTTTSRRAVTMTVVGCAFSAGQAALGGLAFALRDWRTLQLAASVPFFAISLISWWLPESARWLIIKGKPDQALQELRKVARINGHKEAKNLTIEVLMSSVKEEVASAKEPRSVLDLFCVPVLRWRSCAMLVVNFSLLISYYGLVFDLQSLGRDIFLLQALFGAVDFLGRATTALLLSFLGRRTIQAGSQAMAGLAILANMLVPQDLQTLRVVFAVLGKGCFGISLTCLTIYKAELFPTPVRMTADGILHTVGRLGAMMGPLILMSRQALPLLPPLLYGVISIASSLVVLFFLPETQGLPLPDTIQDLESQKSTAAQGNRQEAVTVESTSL
Procedure: as §1, §2

OCT1 = biological target: T4, OCT1 (Homo sapiens, UniProt O15245)
T4 sequence (O15245 1-554): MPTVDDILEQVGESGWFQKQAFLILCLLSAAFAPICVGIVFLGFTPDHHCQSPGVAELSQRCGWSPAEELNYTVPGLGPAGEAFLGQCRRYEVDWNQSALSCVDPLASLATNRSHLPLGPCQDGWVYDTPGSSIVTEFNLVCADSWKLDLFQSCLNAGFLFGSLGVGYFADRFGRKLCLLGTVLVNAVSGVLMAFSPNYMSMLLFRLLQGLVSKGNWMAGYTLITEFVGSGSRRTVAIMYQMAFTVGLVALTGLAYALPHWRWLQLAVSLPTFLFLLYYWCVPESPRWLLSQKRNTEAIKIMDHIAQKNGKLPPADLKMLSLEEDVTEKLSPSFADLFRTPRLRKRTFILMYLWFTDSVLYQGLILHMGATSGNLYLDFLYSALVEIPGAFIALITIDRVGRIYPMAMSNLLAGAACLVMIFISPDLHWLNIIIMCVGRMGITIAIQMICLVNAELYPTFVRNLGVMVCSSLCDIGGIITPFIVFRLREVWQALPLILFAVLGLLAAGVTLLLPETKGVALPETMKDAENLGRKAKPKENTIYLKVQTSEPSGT

[3] = cited from earlier work

T1 sequence (P08183 whole entry): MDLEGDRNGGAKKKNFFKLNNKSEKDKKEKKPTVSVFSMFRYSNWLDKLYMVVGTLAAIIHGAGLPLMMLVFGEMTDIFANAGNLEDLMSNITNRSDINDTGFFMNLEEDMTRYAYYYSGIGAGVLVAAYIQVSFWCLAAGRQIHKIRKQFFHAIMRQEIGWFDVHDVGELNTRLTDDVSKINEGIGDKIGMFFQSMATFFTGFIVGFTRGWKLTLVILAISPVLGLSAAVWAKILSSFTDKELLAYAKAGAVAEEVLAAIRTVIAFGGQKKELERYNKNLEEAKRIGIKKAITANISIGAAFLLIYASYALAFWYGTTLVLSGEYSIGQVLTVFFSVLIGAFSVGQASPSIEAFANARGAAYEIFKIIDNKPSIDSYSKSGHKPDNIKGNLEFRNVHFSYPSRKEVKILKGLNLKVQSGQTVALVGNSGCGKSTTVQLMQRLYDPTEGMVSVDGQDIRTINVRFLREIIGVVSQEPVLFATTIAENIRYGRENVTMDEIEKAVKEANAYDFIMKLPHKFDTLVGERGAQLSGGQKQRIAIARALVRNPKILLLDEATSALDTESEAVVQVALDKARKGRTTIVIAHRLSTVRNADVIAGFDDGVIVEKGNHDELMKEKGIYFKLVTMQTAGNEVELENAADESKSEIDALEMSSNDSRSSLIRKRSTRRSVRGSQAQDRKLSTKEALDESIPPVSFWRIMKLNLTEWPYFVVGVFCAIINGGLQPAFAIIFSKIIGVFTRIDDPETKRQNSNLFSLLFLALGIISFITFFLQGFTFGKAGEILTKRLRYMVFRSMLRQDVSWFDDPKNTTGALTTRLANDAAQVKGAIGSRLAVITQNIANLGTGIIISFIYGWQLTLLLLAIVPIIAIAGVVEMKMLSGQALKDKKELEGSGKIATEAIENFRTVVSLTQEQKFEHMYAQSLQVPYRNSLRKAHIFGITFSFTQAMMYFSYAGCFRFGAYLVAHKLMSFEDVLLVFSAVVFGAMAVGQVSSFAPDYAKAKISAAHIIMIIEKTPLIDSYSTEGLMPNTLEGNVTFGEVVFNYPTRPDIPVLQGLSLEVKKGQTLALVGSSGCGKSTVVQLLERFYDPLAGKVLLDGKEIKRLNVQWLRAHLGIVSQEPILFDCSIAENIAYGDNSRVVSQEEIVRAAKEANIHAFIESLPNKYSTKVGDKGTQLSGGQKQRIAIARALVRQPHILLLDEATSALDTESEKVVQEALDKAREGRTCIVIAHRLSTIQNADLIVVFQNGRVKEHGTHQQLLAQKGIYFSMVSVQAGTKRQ

## NS(=O)(=O)c1cc(Cl)c(Cl)c(S(N)(=O)=O)c1 [Dichlorphenamide, 4,5-dichloro-1,3-benzenedisulfonamide]
P-gp [1]
  IC50: > 1000 µM
P-gp [2]; 3 μM
  % control: 74.0%
P-gp [2]; 10 μM
  % control: 98.2%
P-gp [2]; 30 μM
  % control: 89.8%
P-gp [2]; 100 μM
  % control: 79.2%
P-gp [2]; 300 μM
  % control: 275%
P-gp [2]; 1000 μM
  % control: 127%
OAT2
  IC50: > 1000 µM
OAT4
  IC50: > 1000 µM
OCT1
  IC50: > 1000 µM
[3]; dilute solutions of sodium carbonate and sodium hydroxide
  solubility in dilute solutions of sodium carbonate and sodium hydroxide: soluble
[3]; room temperature
  stability of dilute alkaline solutions: stable
[3]; water
  solubility in water: very slightly soluble
